Key:
Test in all cases: relative viability (nuclei count vs DMSO), 5 days (fraction); higher = more cells survive
Vismodegib + Foretinib = compound: CS(=O)(=O)c1ccc(C(=O)Nc2ccc(Cl)c(-c3ccccn3)c2)c(Cl)c1 [Vismodegib] + COc1cc2c(Oc3ccc(NC(=O)C4(C(=O)Nc5ccc(F)cc5)CC4)cc3F)ccnc2cc1OCCCN1CCOCC1 [Foretinib] (partner 0.25 µM)
How it was run: (§1)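 Nuclei were stained with Hoechst during a one-step fixation (final 0.05% Triton X-100, 1% formaldehyde, 1 ug/ml Hoechst) carried out 5 days after dosing, then counted on 4× images. The cells, lung cancer lines in 1536-well plates, had been dosed by pin tool the day after seeding with one drug alone or a fixed anchor-drug dose plus five library-drug doses (not always all listed) in √10 steps. Relative viability is the nuclei count in treated wells divided by that in vehicle wells, and each value is the median of duplicate plates.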

VE-821 + Olaparib = compound: CS(=O)(=O)c1ccc(-c2cnc(N)c(C(=O)Nc3ccccc3)n2)cc1 [VE-821] + O=C(c1cc(Cc2n[nH]c(=O)c3ccccc23)ccc1F)N1CCN(C(=O)C2CC2)CC1 [Olaparib] (partner 8 µM)
How it was run: as §1

Ruxolitinib + Decitabine = compound: N#CC[C@H](C1CCCC1)n1cc(-c2ncnc3[nH]ccc23)cn1 [Ruxolitinib] + Nc1ncn([C@H]2C[C@H](O)[C@@H](CO)O2)c(=O)n1 [Decitabine] (partner 2 µM)
How it was run: as §1

Vismodegib + Palbociclib = compound: CS(=O)(=O)c1ccc(C(=O)Nc2ccc(Cl)c(-c3ccccn3)c2)c(Cl)c1 [Vismodegib] + CC(=O)c1c(C)c2cnc(Nc3ccc(N4CCNCC4)cn3)nc2n(C2CCCC2)c1=O [Palbociclib] (partner 0.5 µM)
How it was run: as §1

Cell Line | relative viability (Vismodegib + Foretinib; first compound 0.08 µM) | relative viability (Vismodegib + Foretinib; first compound 0.253 µM) | relative viability (Vismodegib + Foretinib; first compound 0.8 µM) | relative viability (Vismodegib + Foretinib; first compound 2.53 µM) | relative viability (Vismodegib + Foretinib; first compound 8 µM) | relative viability (VE-821 + Olaparib; first compound 0.08 µM) | relative viability (VE-821 + Olaparib; first compound 0.253 µM) | relative viability (VE-821 + Olaparib; first compound 0.8 µM) | relative viability (VE-821 + Olaparib; first compound 2.53 µM) | relative viability (VE-821 + Olaparib; first compound 8 µM) | relative viability (Ruxolitinib + Decitabine; first compound 0.253 µM) | relative viability (Ruxolitinib + Decitabine; first compound 0.8 µM) | relative viability (Ruxolitinib + Decitabine; first compound 2.53 µM) | relative viability (Ruxolitinib + Decitabine; first compound 8 µM) | relative viability (Vismodegib + Palbociclib; first compound 0.08 µM) | relative viability (Vismodegib + Palbociclib; first compound 0.253 µM) | relative viability (Vismodegib + Palbociclib; first compound 0.8 µM) | relative viability (Vismodegib + Palbociclib; first compound 2.53 µM) | relative viability (Vismodegib + Palbociclib; first compound 8 µM) | relative viability (Ruxolitinib + Decitabine; first compound 0.08 µM)
COR-L 105 | 1.23 | 0.829 | 1.17 | 0.82 | 0.994 | 0.708 | 0.638 | 0.434 | 0.561 | 0.484 | 0.57 | 0.656 | 0.659 | 0.58 | 0.425 | 0.415 | 0.369 | 0.405 | 0.388 | –
ChaGo-K-1 | 1.03 | 0.918 | 0.92 | 0.838 | 0.886 | 0.449 | 0.396 | 0.36 | 0.345 | 0.283 | 0.529 | 0.52 | 0.447 | 0.478 | 0.913 | 0.968 | 0.893 | 0.927 | 0.915 | 0.515
EKVX | 0.744 | 0.702 | 1.05 | 0.724 | 0.737 | 0.863 | 0.837 | 0.813 | 0.783 | 0.736 | 0.3 | 0.35 | 0.337 | 0.414 | – | 0.38 | 0.392 | 0.325 | 0.433 | –
EMC-BAC-2 | 0.977 | 0.965 | 0.95 | 1 | 1.04 | 0.606 | 0.495 | 0.559 | 0.46 | 0.383 | 0.916 | 1.14 | 0.921 | 0.851 | 0.508 | 0.498 | 0.516 | 0.508 | 0.546 | 0.915
EPLC-272H | 0.787 | 0.727 | 0.68 | 0.785 | 0.776 | 0.949 | 0.829 | 0.504 | 0.608 | 0.255 | 0.367 | 0.439 | 0.414 | 0.36 | 0.307 | 0.305 | 0.355 | 0.342 | 0.311 | 0.408
H3255 | 0.865 | 0.866 | 0.822 | 0.888 | 0.878 | 0.576 | 0.532 | 0.553 | 0.535 | 0.493 | 0.568 | 0.781 | 0.535 | 0.609 | 0.296 | 0.29 | 0.292 | 0.33 | 0.324 | –
HARA | 0.977 | 0.992 | 0.41 | 0.805 | 1.03 | 0.695 | 0.798 | 0.583 | 0.387 | 0.391 | 0.472 | 0.631 | 0.565 | 0.489 | 0.284 | 0.245 | 0.221 | 0.303 | 0.27 | 0.63
HCC-15 | 1.01 | 0.964 | 1.04 | 1.09 | 1.04 | 0.77 | 0.703 | 0.894 | 0.735 | 0.558 | 0.553 | 0.7 | 0.55 | 0.48 | 0.718 | 0.715 | 0.794 | 0.838 | 0.738 | 0.677
HCC-78 | 0.515 | 0.538 | 0.511 | 0.593 | 0.532 | 0.8 | 0.931 | 0.772 | 0.946 | 0.736 | 0.607 | 0.677 | 0.527 | 0.661 | 0.535 | 0.505 | 0.483 | 0.44 | 0.488 | 0.598
HCC-366 | 0.893 | 0.925 | 0.877 | 0.956 | 0.864 | 0.654 | 0.342 | 0.19 | 0.0816 | 0.0499 | 0.321 | 0.318 | 0.24 | 0.275 | 0.342 | 0.373 | 0.463 | 0.456 | 0.449 | 0.361
HCC-827 | 0.995 | 1.03 | 0.972 | 1.01 | 0.866 | 0.735 | 0.753 | 0.136 | 0.734 | 0.711 | 0.325 | 0.364 | 0.253 | 0.305 | 0.222 | 0.517 | 0.449 | 0.446 | 0.481 | –
HOP-62 | 1.1 | 1.03 | 1.1 | 1.07 | 1.1 | 0.375 | 0.477 | 0.418 | 0.212 | 0.252 | 0.258 | 0.227 | 0.208 | 0.19 | 0.4 | 0.411 | 0.425 | 0.46 | 0.39 | 0.197
LC-2-ad | 0.924 | 0.848 | 0.893 | 0.847 | 1.02 | 0.714 | 0.709 | 0.725 | 0.592 | 0.519 | 0.936 | 0.784 | 0.694 | 0.604 | 0.477 | 0.501 | 0.482 | 0.479 | 0.544 | 0.776
LCLC-97TM1 | 0.953 | 0.934 | 0.869 | 0.97 | 0.912 | 0.483 | 0.373 | 0.418 | 0.359 | 0.166 | 0.242 | 0.22 | 0.265 | 0.222 | 0.202 | 0.208 | 0.263 | 0.203 | 0.213 | 0.221
LCLC-103H | 0.747 | 0.758 | 0.73 | 0.756 | 0.776 | 0.769 | 0.76 | 0.71 | 0.76 | 0.663 | 0.775 | 0.802 | 0.656 | 0.658 | 0.473 | 0.475 | 0.481 | 0.517 | 0.526 | 0.83
LK-2 | 1.14 | 0.974 | 1.13 | 1.34 | 1.38 | 0.991 | 0.826 | 0.879 | 0.916 | 0.69 | 0.237 | 0.35 | 0.308 | 0.273 | 0.72 | 0.708 | 0.607 | 0.83 | 0.745 | 0.228
LOU-NH91 | 0.943 | 0.925 | 0.905 | 0.867 | 0.912 | 0.988 | 0.921 | 0.924 | 0.916 | 0.847 | 0.813 | 0.829 | 0.782 | 0.798 | 0.536 | 0.582 | 0.496 | 0.523 | 0.553 | 0.684
LU99A | 0.866 | 0.775 | 0.751 | 0.725 | 0.79 | 0.245 | 0.228 | 0.176 | 0.143 | 0.122 | 0.938 | 0.886 | 0.639 | 0.836 | 0.387 | 0.4 | 0.393 | 0.409 | 0.433 | 0.918
LXF-289 | 0.943 | 0.913 | 1.01 | 0.97 | 0.922 | 1.3 | 1.05 | 1.24 | 1.37 | 0.903 | 0.426 | 0.353 | 0.363 | 0.371 | 0.582 | 0.605 | 0.595 | 0.594 | 0.6 | 0.369
NCI-H23 | 0.925 | 0.899 | 1.01 | 0.593 | 1.2 | 0.311 | 0.245 | 0.201 | 0.195 | 0.125 | 0.337 | 0.359 | 0.275 | 0.305 | 0.505 | 0.439 | 0.544 | 0.412 | 0.522 | 0.311
NCI-H322M | 1.01 | 0.965 | 1.01 | 0.87 | 0.97 | 0.783 | 0.842 | 0.712 | 0.653 | 0.458 | 0.702 | 0.744 | 0.693 | 0.889 | 0.455 | 0.465 | 0.459 | 0.506 | 0.509 | 0.718
NCI-H358 | 0.677 | 0.629 | 0.797 | 0.68 | 0.782 | 0.69 | 0.622 | 0.698 | 0.697 | 0.665 | 0.202 | 0.213 | 0.169 | 0.194 | 0.141 | 0.181 | 0.138 | 0.135 | 0.16 | 0.226
NCI-H441 | 1.24 | 1.04 | 0.931 | 0.774 | 1.01 | 0.6 | 0.643 | 0.584 | 0.469 | 0.247 | 0.238 | 0.21 | 0.16 | 0.26 | 0.203 | – | 0.196 | 0.243 | 0.24 | 0.244
NCI-H460 | 0.948 | 0.951 | 1.04 | 0.975 | 1.08 | 0.52 | 0.378 | 0.231 | 0.138 | 0.118 | 0.408 | 0.576 | 0.28 | 0.388 | 0.225 | 0.125 | 0.217 | 0.156 | 0.35 | 0.451
NCI-H520 | 0.839 | 0.678 | 0.697 | 0.709 | 0.682 | 0.321 | 0.386 | 0.307 | 0.275 | 0.228 | 0.484 | 0.553 | 0.47 | 0.525 | 0.182 | 0.224 | 0.254 | 0.198 | 0.288 | 0.506
NCI-H647 | 1.24 | 1.22 | 1.26 | 1.02 | 1.14 | 0.504 | 0.546 | 0.413 | 0.184 | 0.101 | 0.351 | 0.433 | 0.28 | 0.344 | 0.328 | 0.409 | 0.463 | 0.354 | 0.452 | 0.45
NCI-H650 | 0.792 | 0.999 | 0.988 | 1.03 | 0.951 | 0.44 | 0.432 | 0.422 | 0.482 | 0.439 | 0.38 | 0.28 | 0.342 | 0.332 | 0.359 | 0.323 | 0.309 | 0.338 | 0.341 | 0.364

Source: the supplement of paper PMC10307832
